Test results taken from US9932300B2, “N,N′-diarylurea compounds and N,N′-diarylthiourea compounds as inhibitors of translation initiation” (President and Fellows of Harvard College, priority 2009, dated 2018).
Peptide text beside a SMILES is read from it.

What was measured:
[1] = test system: eIF2-GTP-Met-tRNAi ternary complex; experiment: Ternary complex assay (dual luciferase, firefly/renilla ratio) in stable KLN-tTA/pBISA-DL(ATF-4) cells; HTS and hit confirmation; format: cell-based, mouse; conditions: for Relative F-luc/R-luc Ratio (+/− SEM): anti-cancer agents at 20 μM, ternary complex assay; for Induction of F-luc/R-luc ratio after knockdown of HRI: siRNA against HRI
[2] = test system: eIF2-GTP-Met-tRNAi ternary complex; experiment: Ternary complex activity (cell line not stated); format: cell-based
[3] = In vivo toxicity in female nude mice (body weight, food consumption, necropsy)
Description: Five female nude mice each were treated with 200 mg/kg, 100 mg/kg #1781 in 15 μl DMSO or 15 μl DMSO daily for seven days. Mice were observed daily for signs of toxicity and weighed every other day for total of 15 days and then necropsy was performed. The average body of each group is plotted against the time.
To study toxicity effects, mice were treated with various doses of compound #1781 or vehicle.

CHOP = experiment: Expression of endogenous CHOP mRNA (real time PCR) and CHOP protein (Western blot); format: cell-based, mouse and human; conditions: siRNA against HRI
Excerpt: (§1) For example, reducing amount of the ternary complex increases translation of ATF-4, which results in elevated expression of CHOP mRNA and protein. Therefore, expression of endogenous CHOP mRNA and CHOP protein in KLN-tTA/pBISA-DL^(ATF-4) cells were utilized as secondary assays to validate N,N′-diarylurea compounds as modifiers of the eIF2⋅GTP⋅Met-tRNAi ternary complex. […] To rule out the possibility that the activity of N,N′-diarylurea compounds was confined to a single cell type, the effects of these compounds on the ternary complex assay and the expression of CHOP mRNA was assayed in CRL-2351, PC-3, CRL-2813 human breast, prostate, and melanoma cancer cell lines respectively. For the reporter gene assay, the three human cell lines were co-transfected with tTA expression vector and the pBISA-DL^(ATF-4) dual luciferase expression vector shown in FIG. 6. […] The expression of CHOP mRNA was assayed by real time PCR in the same cell lines treated with 5 or 20 μM of each compound. […]
Real time PCR: For real time PCR, total RNA was extracted with TaqMan Gene Expression Cells-to-Ct™ Kit (Applied Biosystems, Branchburg, N.J.) according to manufacturer's protocol. […] To calibrate the results, all the transcripts quantities were normalized to 18S rRNA (was 18S ribosomal RNA-like mRNA in mouse). […]

HRI = experiment: Activation of HRI in cell-free lysates (phosphorylation of eIF2α, Western blot); format: biochemical, rabbit and human; conditions: lysates of CRL-2813 cells or heme-supplemented rabbit reticulocytes, 30 minutes at 37° C.
Description: FIGS. 14A and 14B depict that N,N′-diarylurea compounds activate HRI in cell free lysates. A and B) Heme supplemented rabbit reticulocyte (a) or in-house prepared human melanoma cancer cell lysates (b) were incubated with the indicated concentration of compound 1781 for 30 minutes at 37° C. and phosphorylation of eIF2α was determined by Western blot analysis.
Compound #1781 was added to lysates of CRL-2813 cells or heme-supplemented rabbit reticulocytes and phosphorylation of eIF2α by Western blot was determined.

[4] = test system: eIF2-GTP-Met-tRNAi ternary complex; experiment: Ternary complex / ATF-4 dual luciferase assay in human cancer cell lines co-transfected with tTA and pBISA-DL(ATF-4) (CRL-2351, PC-3, CRL-2813); format: cell-based; conditions: CRL-2351 cell line
Description: FIGS. 8A-8D depict that N,N′-diarylureas reduce the availability of the eIF2-GTP-Met-tRNAi ternary complex in human cancer cells. A-C) PC-3, CR-L2351, and CRL-2813 human cancer cell lines were co-transfected with pBISA-DL^(ATF-4) and ptTA plasmids. One day post-transfection, the cells were treated with the indicated concentrations of N,N′-diarylureas. Firefly/renilla ratio was determined by DLR assay 8 hours after treatment. D) PC-3, CR-L2351, and CRL-2813 human cancer cell lines were treated with the indicated concentrations of N,N′-diarylureas four 8 hours, and expression of endogenous CHOP mRNA was determined by real-time PCR.
as §1
Stable and transient transfection: Cells were seeded at the density of 10^5 in 60-mm (stable transfection) or 10^4 cells per well of 96-well plate (transient transfection) plates and transfected one day later using the Qiagen Transfectamine transfection kit. For selection of stable cell lines, transfected cells were transferred to 100-mm plates and selected with appropriate antibiotics.
Dual luciferase assay: Cells or minced tumors expressing firefly and renilla luciferases were lysed and the extracts assayed with a glow type dual luciferase assay kit, per manufacturer's instruction (Promega Inc., Madison, Wis.).

[5] = test system: eIF2-GTP-Met-tRNAi ternary complex; experiment: Ternary complex assay (dual luciferase, firefly/renilla ratio) in stable KLN-tTA/pBISA-DL(ATF-4) cells; HTS and hit confirmation; format: cell-based, mouse; conditions: KLN-tTA/pBISA-DL(ATF-4) colonies, assay validation

SMILES	Relative F-luc/R-luc Ratio (+/− SEM) [1]	ATF-4 Cmax (concentration corresponding to the maximal activity) [4] [µM]	other results
CC(C)Cn1c(=O)n(C)c(=O)c2[nH]cnc21 [Compound 3-isobutyl-1-methylxanthine]	1.1 + 0.2	–	–
CCCCCCCCCC(=O)NC(CN1CCOCC1)C(O)c1ccccc1 (stereo not drawn) [Threo-1-phenyl]	1.5 + 0.4	–	–
COc1cc(N(C)C(=O)Nc2cc(C(F)(F)F)cc(C(F)(F)F)c2)ccc1C	–	–	Maximum effect (Emax, fold over control) [2]: Inactive
O=C(Nc1ccc(Cl)c(Cl)c1)Nc1ccc2nnsc2c1 [Compound 1781]	–	–	Apparent in vivo toxicity ([3]; 200 mg/kg or 100 mg/kg daily for seven days, female nude mice, observed 15 days): no apparent in vivo toxicity; Effect on weight gain or food consumption ([3]; seven consecutive day administration, up to 200 mg/kg, mice): no adverse effect on weight gain or food consumption; Induction of CHOP mRNA after knockdown of HRI (CHOP): abrogated induction of CHOP mRNA; Phosphorylation of eIF2α in cell lysates (HRI): caused phosphorylation of eIF2α in cell lysates in a dose dependent manner; Induction of F-luc/R-luc ratio after knockdown of HRI [1]: significantly abrogated; Induction of F-luc/R-luc ratio after knockdown of HRI ([1]; listed as 1181): almost completely abrogated; Induction of F-luc/R-luc ratio after knockdown of PKR, PERK or GCN2 ([1]; siRNA against PKR, PERK, GCN2, individually or combined): no effect
CC[C@@]1(O)C(=O)OCc2c1cc1n(c2=O)Cc2cc3ccccc3nc2-1 [Camptothecin]	1.3 + 0.3	–	–
Clc1ccccc1C(c1ccccc1)(c1ccccc1)n1ccnc1 [CLT, clotrimazole, reference compound]	6 + 1.1	–	–
N=C(N)NC(=O)c1nc(Cl)c(N)nc1N [Amiloride]	1.1 + 0.3	–	–
COc1ccc([C@@H]2Sc3ccccc3N(CCN(C)C)C(=O)[C@@H]2OC(C)=O)cc1 [Dilthiazem]	1.4 + 0.4	–	–
Cc1ccc(N(C)C(=O)Nc2cc(C(F)(F)F)cc(C(F)(F)F)c2)cc1O	–	–	Maximum effect (Emax, fold over control) [2]: 8.5 fold over control; Maximum effective dose Cmax [2]: 80 µM
CO[C@@]12[C@H](COC(N)=O)C3=C(C(=O)C(C)=C(N)C3=O)N1C[C@@H]1N[C@@H]12 [Mitomycin C]	0.9 + 0.3	–	–
O=c1[nH]cc(F)c(=O)[nH]1 [Compound 5-fluorouracil, 5-fluorouracil]	1 + 0.2	–	–
CN(C(=O)Nc1cc(C(F)(F)F)cc(C(F)(F)F)c1)c1cc(C(F)(F)F)cc(C(F)(F)F)c1	–	–	Maximum effect (Emax, fold over control) [2]: 13 fold over control; Maximum effective dose Cmax [2]: 10 µM
Cc1ccc(NC(=O)Nc2ccc(Cl)c(Cl)c2)cc1OCCN1CCOCC1 [Compound 15, 3-(3,4-dichlorophenyl)-1-{4-methyl-3-[2-(morpholin-4-yl)ethoxy]phenyl}urea]	–	10	–
Cc1ccc(NC(=O)Nc2cc(C(F)(F)F)cc(C(F)(F)F)c2)cc1OCCN1CCOCC1 [Compound 17, 3-[3,5-bis(trifluoromethyl)phenyl]-1-{4-methyl-3-[2-(morpholin-4-yl)ethoxy]phenyl}urea]	–	10	–
O=C(Nc1ccc(Cl)c(Cl)c1)Nc1ncccc1O [Compound 26]	–	40	–
O=C(Nc1ccc(Cl)c(C(F)(F)F)c1)Nc1ccc(Cl)c(C(F)(F)F)c1 [Compound 2, 1,3-bis[4-chloro-3-(trifluoromethyl)phenyl]urea]	–	2.4	–
CC(=O)O.NCC(=O)N[C@@H](Cc1c[nH]cn1)C(=O)O [Glycyl-1-histidyl acetate] (H-Gly-His-OH)	1 + 0.1	–	–
O=C(Nc1cc(C(F)(F)F)cc(C(F)(F)F)c1)Nc1cc(C(F)(F)F)cc(C(F)(F)F)c1 [Compound 3, 1,3-bis[3,5-bis(trifluoromethyl)phenyl]urea]	–	2.5	–
COc1cc([C@@H]2c3cc4c(cc3[C@@H](O[C@@H]3O[C@@H]5CO[C@@H](C)O[C@H]5[C@H](O)[C@H]3O)[C@H]3COC(=O)[C@H]23)OCO4)cc(OC)c1O [etoposite, reference compound]	1 + 0.2	–	Effect on firefly/renilla luciferase ratio [5]: no effect
COc1cc2c(c(OC)c1OC)-c1ccc(OC)c(=O)cc1[C@@H](NC(C)=O)CC2 [Colchicine]	1.2 + 0.3	–	–
COc1cc(NC(=O)Nc2ccc(Cl)c(C(F)(F)F)c2)ccc1C [Compound 8]	–	10	–
Cc1ccc(NC(=O)Nc2ccc(Cl)c(Cl)c2)cc1O [Compound 4, 3-(3,4-dichlorophenyl)-1-(3-hydroxy-4-methylphenyl)urea]	–	20	–
C=C1[C@@H](O)[C@@H]2O[C@]3(CC[C@H](/C=C/[C@@H](C)[C@@H]4CC(C)=C[C@@]5(O[C@H](C[C@@](C)(O)C(=O)O)CC[C@H]5O)O4)O3)CC[C@H]2O[C@@H]1[C@@H](O)C[C@H](C)[C@H]1O[C@@]2(CCCCO2)CC[C@H]1C [Okadaic acid]	1 + 0.3	–	–
O=C(Nc1ccc(Cl)c(Cl)c1)Nc1ccc(Cl)c(Cl)c1 [Compound 1, 1,3-bis(3,4-dichlorophenyl)urea]	–	5	–
COc1cc(NC(=O)Nc2cc(C(F)(F)F)cc(C(F)(F)F)c2)ccc1C [Compound 9]	–	20	–
Cc1ccc(NC(=O)Nc2cc(C(F)(F)F)cc(C(F)(F)F)c2)cc1O [Compound 6, 3-[3,5-bis(trifluoromethyl)phenyl]-1-(3-hydroxy-4-methylphenyl)urea]	–	5	–
